Results published in patent publication EP1728511A1, “New use of phenethicillin and salts thereof” (Faust Pharmaceuticals, priority 2005, dated 2006).

Tested on: SK-N-SH neuroblastoma cell
Experiment: Serum deprivation assay, neuroblastoma cell survival (neutral red incorporation)
Type: cell-based, Human
Conditions: dose range of 1-10µM, SK-N-SH cells
From the text: Serum provides survival factors (ex: growth factors) necessary to cell viability in culture conditions. According to the serum concentration it is possible to modulate the state of the cell viability. Total suppression of these components triggers cell death via apoptosis or necrosis. Causes of cell death could be oxidative stress and free radical accumulation, mitochondrial dysfunction or imbalanced calcium homeostasis. Human SK-N-SH is a neuronal cell line usually cultured in serum containing medium. Serum withdrawal in the cell culture condition provides a cell-based assay allowing the study of neuroprotection and the screening for drugs capable of protecting cells from death or delaying cell death (Ba et al. (2003) The establishment of a reliable cytotoxic system with SK-N-SH neuroblastoma cell culture. J Neurosci. Methods 123:11-22, Green et al. (1997) 17α-oestradiol exerts neuroprotective effect on SK-N-SH cells. J Neurosci. 17(2):511-515) SK-N-SH cells (passage 35) were obtained from ECACC. […] Cell viability was assessed 48h later. […] The dye (3mg/mL) is allowed to be taken up by the cells one hour at 37°C, 5% CO2, and is subsequently extracted by mixture of acetic acid and ethanol (1/[…]) and measured at 540 nm. […]

CC(Oc1ccccc1)C(=O)N[C@@H]1C(=O)N2[C@@H]1SC(C)(C)[C@@H]2C(=O)O (stereo partly drawn) [phenethicillin, (2S,5R,6R)-3,3-Dimethyl-7-oxo-6-[(1-oxo-2-phenoxypropyl)amino]-4-thia-1-azabicyclo[3.2.0]heptane-2-carboxylic acid]
neuroblastoma cell death: significantly delayed neuroblastoma cell death
